One may read the EC50 as the concentration that produces a half-maximal response.

The source of these data is US7396850B2, “Pyrazole derivative as PPAR modulator” (Eli Lilly and Company, priority 2003, dated 2008).

The structures appear in SMILES notation.

Assay [1] addresses T1, PPARγ (Homo sapiens, UniProt P37231).
T1 construct: expressed in transfected cells; host or cells: CV-1 cells
T1 sequence (P37231 1-505): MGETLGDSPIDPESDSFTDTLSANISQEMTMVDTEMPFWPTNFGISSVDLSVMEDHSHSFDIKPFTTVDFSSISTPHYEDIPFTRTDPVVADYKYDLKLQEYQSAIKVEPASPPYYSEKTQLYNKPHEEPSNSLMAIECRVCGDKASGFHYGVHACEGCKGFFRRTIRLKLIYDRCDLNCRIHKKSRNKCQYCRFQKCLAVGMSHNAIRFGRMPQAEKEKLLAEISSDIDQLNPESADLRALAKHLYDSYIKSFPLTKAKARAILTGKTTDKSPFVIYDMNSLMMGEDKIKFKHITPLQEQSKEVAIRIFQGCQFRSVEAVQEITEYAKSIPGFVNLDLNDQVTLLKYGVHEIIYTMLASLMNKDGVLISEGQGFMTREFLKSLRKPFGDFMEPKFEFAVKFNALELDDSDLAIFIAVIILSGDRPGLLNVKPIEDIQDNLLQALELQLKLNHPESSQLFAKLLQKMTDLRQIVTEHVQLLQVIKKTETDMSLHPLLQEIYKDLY
The experiment in a line: PPAR cotransfection (transactivation) assay in CV-1 cells. Type of assay: cell-based. Here is the method:
(§1) DNA-dependent binding is carried out using SPA technology with PPAR receptors. Tritium-labeled PPARα agonists are used as radioligands for generating displacement curves and IC50 values with compounds of the invention. Cotransfection assays are carried out in CV-1 cells. The reporter plasmid contained an acylCoA oxidase (AOX) PPRE and TK promoter upstream of the luciferase reporter cDNA. Appropriate PPARs are constitutively expressed using plasmids containing the CMV promoter. For PPARα, interference by endogenous PPARγ in CV-1 cells is an issue. In order to eliminate such interference, a GAL4 chimeric system is used in which the DNA binding domain of the transfected PPAR is replaced by that of GAL4, and the GAL4 response element is utilized in place of the AOX PPRE. Cotransfection efficacy is determined relative to PPAR agonist reference molecules. Efficacies are determined by computer fit to a concentration-response curve, or in some cases at a single high concentration of agonist (10 μM).
(§2) These studies are carried out to evaluate the ability of compounds of the invention to bind to and/or activate various nuclear transcription factors, particularly huPPARδ (“hu” indicates “human”). These studies provide in vitro data concerning efficacy and selectivity of compounds of the invention.

Assay [2] addresses T2, PPARδ (Homo sapiens, UniProt Q03181).
T2 construct: expressed in transfected cells; host or cells: CV-1 cells
T2 sequence (Q03181 1-441): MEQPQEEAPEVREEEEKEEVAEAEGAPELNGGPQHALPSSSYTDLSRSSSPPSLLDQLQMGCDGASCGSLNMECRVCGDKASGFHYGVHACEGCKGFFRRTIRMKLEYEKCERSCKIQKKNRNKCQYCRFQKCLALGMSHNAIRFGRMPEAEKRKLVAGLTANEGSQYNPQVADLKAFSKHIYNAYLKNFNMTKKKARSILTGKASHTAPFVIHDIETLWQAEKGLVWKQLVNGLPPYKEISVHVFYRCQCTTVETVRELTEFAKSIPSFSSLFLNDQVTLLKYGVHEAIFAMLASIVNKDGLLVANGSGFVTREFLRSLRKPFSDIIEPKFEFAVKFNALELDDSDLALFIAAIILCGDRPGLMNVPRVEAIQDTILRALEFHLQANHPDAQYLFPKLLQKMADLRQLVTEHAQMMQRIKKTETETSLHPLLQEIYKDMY
The assay is described as above. Type of assay: cell-based. The procedure: as §1, §2

For assay [3], the target named is T3, PPARα (Homo sapiens, UniProt Q07869).
T3 sequence (Q07869 201-468 limits assumed): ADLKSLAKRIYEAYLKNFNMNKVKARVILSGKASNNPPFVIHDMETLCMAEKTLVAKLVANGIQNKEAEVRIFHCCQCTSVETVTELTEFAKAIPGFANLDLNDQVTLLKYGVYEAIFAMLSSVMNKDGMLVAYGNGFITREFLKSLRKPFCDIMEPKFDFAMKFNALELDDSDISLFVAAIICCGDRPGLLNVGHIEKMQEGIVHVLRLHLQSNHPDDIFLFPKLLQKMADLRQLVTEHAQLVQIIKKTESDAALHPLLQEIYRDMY
The experiment in a line: PPAR cotransfection (transactivation) assay in CV-1 cells, GAL4 chimeric system. Type of assay: cell-based. The procedure:
as §1, §2

Assay [4] deals with obese, non-diabetic rhesus monkeys. The experiment in a line: Dyslipidemic rhesus monkey model, oral dose-escalation study for 28 days. Type of assay: in vivo. Here is the method:
The compound of Formula 1 was examined in a dyslipidemic rhesus monkey model. […] HDL cholesterol increased by more than 40% in the 3.0 mg/kg b.i.d. dose group. LDL cholesterol decreased by approximately 25% in the 9.0 mg/kg b.i.d dose group, and a dose-related effect on triglycerides yielded a maximum 53% reduction in the 9.0 mg/k.g b.i.d dose group.

`Cc1cc(SCc2cn(-c3ccc(C(F)(F)F)cc3)nc2C)ccc1OCC(=O)O` [Formula 1, {2-Methyl-4-[3-methyl-1-(4-trifluoromethyl-phenyl)-1H-pyrazol-4-ylmethylsulfanyl]-phenoxy}-acetic acid]: the EC50 in assay [1] was 2600 nM; in assay [2] it was 20 nM; in assay [3], 1800 nM. Further, in assay [4] (compared to pretreatment levels), the C-reactive protein levels result is reported as “reduced compared to pretreatment levels”. Moreover, in assay [4] (oral dose-escalation, 28 days, each dose), the HDL-c change result is given as “elevation of HDL-c with each dose”. The HDL cholesterol increase entry in assay [4] (oral, 3.0 mg/kg b.i.d. dose group) is “more than 40%”. Further, in assay [4] (oral, 9.0 mg/kg b.i.d. dose group), the LDL cholesterol decrease result is listed as “approximately 25%”. Further, the triglycerides maximum reduction in assay [4] (oral, 9.0 mg/kg b.i.d. dose group, dose-related effect) amounted to 53%.
